Measured values from patent US10857127B2, “Vaginal delivery systems containing selective estrogen receptor modulator (SERM) and uses thereof” (Azure Biotech, Inc., priority 2016, dated 2020).

Assays:
[1] = hydroperoxides, cited from earlier work; for Average HPO: average of lots tested; for High HPO Lot: highest lot; for Low HPO Lot: lowest lot
[2] = Dissolution studies of Lasofoxifene in organic solvents and surfactants; type: physicochemical; conditions: Lasofoxifene 1 mg/ml in the labelled solvent/surfactant; visual examination
[3] = Peroxide value of excipients at the opening of the container; type: physicochemical; conditions: measured after opening the container
[4] = Dissolution studies of Lasofoxifene in organic solvents and surfactants; type: physicochemical; conditions: visual examination
Procedure: The solubility of Lasofoxifene was investigated by screening various organic solvents and surfactants in increasing concentrations. The term “formulation” may refer to a pharmaceutical composition comprising […] pharmaceutically acceptable excipients.
First, 1 mg of Lasofoxifene was weighed into Eppendorf vessels and 500 μl of organic solvents and surfactants as listed in Table 20 were added. In cases of insufficient dissolution of the API, samples were treated with ultrasound for 30 min and, if necessary, heated to 50° C. while shaking (300 rpm). Afterwards, samples were examined visually regarding drug dissolution. In case of entire dissolution, the experiment was repeated with increasing drug concentrations until maximum dissolution was achieved. In addition, further organic solvents and surfactants were tested.

| Compound | Average HPO [1] [nmol/g] | High HPO Lot [1] [nmol/g] | Low HPO Lot [1] [nmol/g] | Dissolution of Lasofoxifene in various organic solvents and surfactants, 1 mg/ml [2] | Peroxide value [3] [µmol] | Dissolution of Lasofoxifene in various organic solvents and surfactants, 2 mg/ml ([4]; Lasofoxifene 2 mg/ml in the labelled solvent/surfactant) | Dissolution of Lasofoxifene in various organic solvents and surfactants, 3 mg/ml ([4]; Lasofoxifene 3 mg/ml in the labelled solvent/surfactant) | Dissolution of Lasofoxifene in various organic solvents and surfactants, 6 mg/ml ([4]; Lasofoxifene 6 mg/ml in the labelled solvent/surfactant) |
| --- | --- | --- | --- | --- | --- | --- | --- | --- |
| OC[C@H]1O[C@@](CO)(O[C@H]2O[C@H](CO)[C@@H](O)[C@H](O)[C@H]2O)[C@@H](O)[C@@H]1O [Sucrose] | <10 | 20 | <10 | – | – | – | – | – |
| OC[C@@H](O)[C@@H](O)[C@H](O)[C@H](O)CO [Mannitol] | <10 | <10 | <10 | – | – | – | – | – |
| Tetraglycol [Tetraglycol (TG)] | – | – | – | dissolved | 1.55 | dissolved | partially | not dissolved |
| OC[C@H]1O[C@@H](O[C@H]2[C@H](O)[C@@H](O)C(O)O[C@@H]2CO)[C@H](O)[C@@H](O)[C@H]1O (some centres unmarked) [Lactose] | <10 | 10 | <10 | – | – | – | – | – |
